Assay results taken from patent US8575135B2 (Gilead Sciences, Inc., priority 2011, dated 2013).
Like-named read-outs stand apart in the source and are kept apart here.

How the values were obtained:
Test in all cases: microbe, parasite or virus in culture
Details in all cases: Hepatitis C virus
[1] = test system: stable HCV 1a RLuc replicon cells (genotype 1a H77 replicon); type: cell-based
Experimental: (§1) Evaluation of Cell-Based Anti-HCV Activity:
(§2) Antiviral potency (EC50) was determined using a Renilla luciferase (RLuc)-based HCV replicon reporter assay. […] To perform the assay for genotype 2a (with M31 present in NS5A) or 2b, NS5A chimeric genotype 2a JFH-1 replicons that encodes a RLuc-Neo reporter and either genotype 2a J6 strain NS5A gene or genotype 2b MD2b-1 strain NS5A gene (both with M31 present) respectively, were either transiently transfected (t) into Huh-Lunet cells or were established as stably replicating replicon cells (s) is provided. Either cells were dispensed into 384-well plates for EC50 assays. To perform the assay for genotype 3 and 4, NS5A chimeric genotype 1b Con1 replicons that encodes a Pi-RLuc reporter and either genotype 3a S52 strain NS5A gene or genotype 4a ED43 strain NS5A gene respectively, were transiently transfected (t) into Huh-Lunet cells, which were subsequently dispensed into 384-well plates. Compounds were dissolved in DMSO at a concentration of 10 mM and diluted in DMSO either manually or using an automated pipeting instrument. Serially 3-fold diluted compounds were either manually mixed with cell culture media and added to the seeded cells or directly added to the cells using an automated instrument. […] 72 hours later, cells were lysed and Renilla luciferase activity quantified as recommended by the manufacturer (Promega-Madison, Wis.). Non-linear regression was performed to calculate EC50 values.

[2] = test system: stable HCV 2a JFH-1 Rluc replicon cells (L31 present in NS5A); type: cell-based
[3] = test system: NS5A chimeric genotype 2a JFH-1 replicon with genotype 2a J6 strain NS5A gene (M31 present); type: cell-based, HCV
Experimental: as §1, §2

[4] = test system: NS5A chimeric genotype 1b Con1 replicon with genotype 3a S52 strain NS5A gene; type: cell-based, HCV
Experimental: as §1, §2

[5] = test system: NS5A chimeric genotype 2a JFH-1 replicon with genotype 2b MD2b-1 strain NS5A gene (M31 present); type: cell-based, HCV
Experimental: as §1, §2

[6] = test system: 1a Pi-Rluc replicon with Q30R in genotype 1a NS5A; type: cell-based, HCV
Experimental: as §2
To determine the antiviral potency (EC50) against resistance mutants, resistance mutations, including M28T, Q30R, Q30H, L31M, and Y93C in genotype 1a NS5A and Y93H in genotype 1b NS5A, were introduced individually into either 1a Pi-Rluc or 1b Pi-Rluc replicons by site directed mutagenesis. Replicon RNA of each resistant mutant was transiently transfected into Huh-7-derived cured-51 cells and antiviral potency was determined on these transfected cells as described above.

[7] = test system: NS5A chimeric genotype 1b Con1 replicon with genotype 4a ED43 strain NS5A gene; type: cell-based, HCV

| SMILES | EC50 ([1]; read-out: 1a) | EC50 ([1]; read-out: 1a (nM)) | EC50 ([2]; read-out: 2a JFH) | EC50 ([2]; read-out: 2a JFH (nM)) | EC50 ([3]; read-out: 2a J6) | EC50 ([3]; read-out: 2a J6 (s) (nM)) | EC50 ([4]; read-out: 3a) | EC50 ([4]; read-out: 3a (nM)) | EC50 ([5]; read-out: 2b) | EC50 ([5]; read-out: 2b (s) (nM)) | EC50 ([6]; read-out: 1a Q30R) | EC50 ([6]; read-out: 1a Q30R (nM)) | EC50 ([7]; read-out: 4a) | EC50 ([7]; read-out: 4a (s) (nM)) | EC50 ([7]; read-out: 4a (t) (nM)) | EC50 ([3]; read-out: 2a Jb (t) (nM)) | EC50 ([5]; read-out: 2b (t) (nM)) |
| --- | --- | --- | --- | --- | --- | --- | --- | --- | --- | --- | --- | --- | --- | --- | --- | --- | --- |
| COC(=O)N[C@H](C(=O)N1CCC[C@H]1c1nc2c([nH]1)-c1cc3c(cc1CC2)-c1ccc(-c2cnc([C@@H]4CCCN4C(=O)[C@H](NC(=O)C4CC4)c4ccccc4)[nH]2)cc1CO3)C(C)C [Compound 494] | < 1 nM | 0.037 nM | < 1 nM | 0.005 nM | < 1 nM | 0.098 nM | < 1 nM | 0.005 nM | < 1 nM | 0.017 nM | < 1 nM | 0.118 nM | < 1 nM | 0.031 nM | 0.017 nM | – | – |
| COC[C@H]1C[C@@H](c2nc3ccc4cc5c(cc4c3[nH]2)OCc2cc(-c3cnc([C@@H]4CCCN4C(=O)[C@@H](NC(=O)OC)C(C)C)[nH]3)ccc2-5)N(C(=O)[C@@H](NC(=O)OC)C(C)C)C1 [Compound 495] | < 1 nM | 0.021 nM | < 1 nM | 0.008 nM | < 1 nM | 1.02 nM | < 1 nM | 0.024 nM | < 1 nM | 0.541 nM | < 1 nM | 0.201 nM | < 1 nM | 0.014 nM | 0.014 nM | 0.28 nM | 0.135 nM |
| COC(=O)N[C@H](C(=O)N1CCC[C@H]1c1nc2ccc3cc4c(cc3c2[nH]1)OCc1cc(-c2cnc([C@@H]3CCCN3C(=O)[C@H](NC(=O)C3CC3)c3ccccc3)[nH]2)ccc1-4)C(C)C [Compound 498] | < 1 nM | 0.03 nM | < 1 nM | 0.004 nM | < 1 nM | 0.039 nM | < 1 nM | 0.005 nM | < 1 nM | 0.013 nM | < 1 nM | 0.04 nM | < 1 nM | 0.004 nM | 0.011 nM | 0.012 nM | 0.01 nM |
| COC[C@H]1C[C@@H](c2ncc(-c3ccc4c(c3)COc3cc5c(cc3-4)CCc3nc([C@@H]4CCCN4C(=O)[C@@H](NC(=O)OC)C(C)C)[nH]c3-5)[nH]2)N(C(=O)[C@H](NC(=O)OC)c2ccccc2)C1 [Example OK, Methyl {(1R)-2-[(2S,4S)-2-(5-{2-[(2S)-1-{(2S)-2-[(methoxycarbonyl)amino]-3-methylbutanoyl}pyrrolidin-2-yl]-1,4,5,11-tetrahydroisochromeno[4′,3′:6,7]naphtho[1,2-d]imidazol-9-yl}-1H-imidazol-2-yl)-4-(methoxymethyl)pyrrolidin-1-yl]-2-oxo-1-phenylethyl}carbamate] | < 1 nM | 0.026 nM | < 1 nM | 0.011 nM | < 1 nM | – | < 1 nM | 0.028 nM | < 1 nM | 0.045 nM | < 1 nM | 0.039 nM | – | – | – | 0.076 nM | 0.036 nM |
| COC[C@H]1C[C@@H](c2ncc(-c3ccc4c(c3)COc3cc5c(ccc6nc([C@@H]7C[C@@H]8C[C@@H]8N7C(=O)[C@@H](NC(=O)OC)C(C)C)[nH]c65)cc3-4)[nH]2)N(C(=O)[C@H](NC(=O)OC)c2ccccc2)C1 [Example OV, Methyl {(1R)-2-[(2S,4S)-2-(5-{2-[(1S,3S,5S)-2-{(2S)-2-[(methoxycarbonyl)amino]-3-methylbutanoyl}-2-azabicyclo[3.1.0]hex-3-yl]-1,11-dihydroisochromeno[4′,3′:6,7]naphtho[1,2-d]imidazol-9-yl}-1H-imidazol-2-yl)-4-(methoxymethyl)pyrrolidin-1-yl]-2-oxo-1-phenylethyl}carbamate] | < 1 nM | 0.01 nM | < 1 nM | 0.007 nM | < 1 nM | – | < 1 nM | 0.013 nM | < 1 nM | – | < 1 nM | 0.031 nM | – | – | – | 0.113 nM | 0.046 nM |
| COC[C@H]1C[C@@H](c2ncc(-c3ccc4c(c3)COc3cc5c(ccc6nc([C@@H]7C[C@H]8C[C@H]8N7C(=O)[C@@H](NC(=O)OC)C(C)C)[nH]c65)cc3-4)[nH]2)N(C(=O)[C@H](NC(=O)OC)c2ccccc2)C1 [Example PR, methyl {(1R)-2-[(2S,4S)-2-(5-{2-[(1R,3S,5R)-2-{(2S)-2-[(methoxycarbonyl)amino]-3-methylbutanoyl}-2-azabicyclo[3.1.0]hex-3-yl]-1,11-dihydroisochromeno[4′,3′:6,7]naphtho[1,2-d]imidazol-9-yl}-1H-imidazol-2-yl)-4-(methoxymethyl)pyrrolidin-1-yl]-2-oxo-1-phenylethyl}carbamate] | < 1 nM | 0.013 nM | < 1 nM | 0.007 nM | < 1 nM | – | < 1 nM | 0.018 nM | < 1 nM | – | < 1 nM | 0.045 nM | – | – | – | 0.022 nM | 0.028 nM |
| COC(=O)N[C@H](C(=O)N1[C@@H](C)CC[C@H]1c1nc2ccc3cc4c(cc3c2[nH]1)OCc1cc(-c2cnc([C@@H]3C[C@H](C)CN3C(=O)[C@H](NC(=O)OC)c3ccccc3)[nH]2)ccc1-4)C(C)C [Example QF, Methyl {(2S)-1-[(2S,5S)-2-(9-{2-[(2S,4S)-1-{(2R)-2-[(methoxycarbonyl)amino]-2-phenylacetyl}-4-methylpyrrolidin-2-yl]-1H-imidazol-5-yl}-1,11-dihydroisochromeno[4′,3′:6,7]naphtho[1,2-d]imidazol-2-yl)-5-methylpyrrolidin-1-yl]-3-methyl-1-oxobutan-2-yl}carbamate] | < 1 nM | 0.008 nM | < 1 nM | 0.004 nM | < 1 nM | – | < 1 nM | 0.02 nM | < 1 nM | 0.011 nM | < 1 nM | 0.032 nM | – | – | – | 0.053 nM | 0.015 nM |
| COC(=O)N[C@H](C(=O)N1C[C@@H](C)C[C@H]1c1ncc(-c2ccc3c(c2)COc2cc4c(ccc5nc([C@@H]6CC[C@H](C)N6C(=O)[C@@H](NC(=O)OC)C(C)C)[nH]c54)cc2-3)[nH]1)C(C)C [Example QG, Methyl {(2S)-1-[(2S,5S)-2-(9-{2-[(2S,4S)-1-{(2S)-2-[(methoxycarbonyl)amino]-3-methylbutanoyl}-4-methylpyrrolidin-2-yl]-1H-imidazol-5-yl}-1,11-dihydroisochromeno[4′,3′:6,7]naphtho[1,2-d]imidazol-2-yl)-5-methylpyrrolidin-1-yl]-3-methyl-1-oxobutan-2-yl}carbamate] | < 1 nM | 0.005 nM | < 1 nM | 0.004 nM | < 1 nM | – | < 1 nM | 0.016 nM | < 1 nM | 0.043 nM | < 1 nM | 0.071 nM | – | – | – | 0.551 nM | 0.065 nM |
| COC(=O)N[C@H](C(=O)N1[C@@H](C)CC[C@H]1c1nc2ccc3cc4c(cc3c2[nH]1)OCc1cc(-c2cnc([C@@H]3C[C@H](C)CN3C(=O)[C@@H](NC(=O)OC)[C@@H](C)OC)[nH]2)ccc1-4)C(C)C [Example QH, Methyl {(2S)-1-[(2S,5S)-2-(9-{2-[(2S,4S)-1-{(2S,3R)-3-methoxy-2-[(methoxycarbonyl)amino]butanoyl}-4-methylpyrrolidin-2-yl]-1H-imidazol-5-yl}-1,11-dihydroisochromeno[4′,3′:6,7]naphtho[1,2-d]imidazol-2-yl)-5-methylpyrrolidin-1-yl]-3-methyl-1-oxobutan-2-yl}carbamate] | < 1 nM | 0.007 nM | < 1 nM | 0.005 nM | < 1 nM | – | < 1 nM | 0.02 nM | < 1 nM | 0.049 nM | < 1 nM | 0.051 nM | – | – | – | 0.182 nM | 0.051 nM |
